# Test: Human HepG2 cell viability assay in 384 well format
# Format: toxicity, cell-based
# Set-up: dose 125 nL, time 70.5 hour; cytotoxicity at 70.5 h: concentration not given beside the values
# Conditions: HepG2 cells, read-out: Inhibition
row,Structure (SMILES),cytotoxicity at 70.5 h
1,Cc1nn(C)c2cn(CC(=O)N3CCN(c4ccccc4)CC3)nc12,7.34%
2,COc1cc(C(=O)NS(=O)(=O)c2cncc(Br)c2)ccc1C,-19%
3,COc1ccc(CNC2CCN(CCc3ccncc3)CC2)cc1O,-6.38%
4,CNC(=O)NC(C)c1c(F)cccc1Cl (stereo not drawn),-107%
5,CN1C(=O)CC(C(=O)O)C12CCN(Cc1cc(Cl)ccc1F)CC2 (stereo not drawn),8.5%
6,O=C(NCCn1ccc(-c2ccncc2)n1)c1ccncc1,-2.74%
7,CS(=O)(=O)N1CCOCC12CCN(Cc1ccc(F)cc1)CC2,-6.42%
8,CCc1ccc(CCC(=O)NCc2nnc[nH]2)cc1,-19.3%
9,O=C(Cc1ccc2c(c1)CCC2)N1CCN(c2cnccn2)CC1,2.45%
10,CCc1ccc(C(=O)Nc2ccc(CC3CC(=O)NC3=O)cc2)s1 (stereo not drawn),-4%
11,O=C(NCCNc1ncccn1)C1CCN(C(=O)c2ccoc2)CC1,-3.53%
12,CS(=O)(=O)NC1CCN(C(=O)c2cc3ccccc3s2)C1 (stereo not drawn),-22.9%
13,Cn1ccnc1C(=O)N1CCC2(CC1)CC(Oc1cccnc1)CO2 (stereo not drawn),-9.75%
14,Cc1ccc(CN2CC3(CCN(S(=O)(=O)c4ccccc4)C3)C2)o1,24.3%
15,CC1CCN(C(=O)c2cnn3c(-c4ccco4)ccnc23)CC1,-8.7%
16,CC(Cn1ccnc1)NC(=O)C1(c2ccc(F)cc2)CCCC1 (stereo not drawn),-7.69%
17,Cc1nn(CCC#N)c(C)c1CCC(=O)N(C)C,13.3%
18,CC(=O)Nc1nc(C(=O)N2CCCC2c2noc(C)n2)cs1 (stereo not drawn),6.71%
19,O=C1CCCN1Cc1nnn2c1CN(c1ncccn1)CCC2,-9.38%
20,CC(C)[C@H]1COC(=O)N1Cc1nccn1C(C)C,-4.48%
21,Cc1n[nH]c(C)c1-c1nccnc1CC1CCN(S(C)(=O)=O)C1 (stereo not drawn),-7.83%

row,Structure (SMILES),cytotoxicity at 70.5 h
1,CN1CCCC(c2cccc(CCC(=O)NCC3(C)COC3)n2)C1 (stereo not drawn),-1.36%
2,O=C1[C@H]2CC[C@H](CN(S(=O)(=O)c3ccccc3)C2)N1Cc1cscn1,8.27%
3,Cc1cnn(C2CCCN(C(=O)c3ccc(O)nc3)C2)c1 (stereo not drawn),-12.4%
4,COc1ccc(CC(=O)Nc2ccc3ncn(C(C)C)c(=O)c3c2)cc1,-5.16%
5,CCC(O)CN1CCN(C(=O)Cc2cc(C)ccc2OC)CC1 (stereo not drawn),-1.58%
6,O=c1[nH]nc(CNc2ncc(Cl)cn2)[nH]1,28.8%
7,Cc1ccccc1-n1cc(-c2ccnc(N[C@H](CO)C(C)C)n2)cn1,-14.1%
8,CC(C)NC(=O)[C@H]1C[C@@H]2[C@@H](C1)OCCN2Cc1ccsc1,-6.32%
9,CN(C)C(=O)CNC(=O)c1nc(C2CC2)n(-c2ccccc2Cl)n1,-13.7%
10,Cc1cc(=O)[nH]c(-n2nc(C)c(CCC(=O)NCC(C)C)c2C)n1,-4.48%
11,Cc1cc(NCC(=O)N(C)Cc2cccs2)c(C(N)=O)cc1F,0.052%
12,COc1ccc(CN(C)c2ccc(-c3nccn3C)nn2)cc1OC,-5.32%
13,O=C1CCCN1C1CCCN(CCn2cc(Cl)cn2)C1 (stereo not drawn),-26.9%
14,CS(=O)(=O)c1nccn1Cc1ccc(OC(F)F)cc1,-4.68%
15,Cn1ccnc1C1CCN(CCN2CCOCC2)CC1,-8.74%
16,Cc1noc2nc(C3CC3)c(Cl)c(C(=O)O)c12,-7.07%
17,CN(C)C(=O)c1cn[nH]c1C1CCCN1Cc1nccn1C (stereo not drawn),22.5%
18,CCN(C)c1ncnc2c1CCN(Cc1nccs1)CC2,6.96%
19,COc1cc(Cl)cc(C(=O)N2CCC3(CC2)CNC(=O)C3)c1,-15.2%
20,NCc1cccc(NC(=O)CCN2CCOCC2)c1,-9.57%
21,COc1nc(C)cc(C)c1CNC(=O)N(C)Cc1cnn(C)c1,-18%

row,Structure (SMILES),cytotoxicity at 70.5 h
1,CC(C)Nc1ncnc2c1CCN(Cc1ccoc1)CC2,-12.6%
2,CC(=O)N1CC[C@H]2N(C)CC[C@@]2(C(=O)Nc2cccnc2)CC1,-8.43%
3,COCCc1noc(CN2CCC3(CCCO3)CCC2=O)n1 (stereo not drawn),15.5%
4,CCc1nnc2n1CCN(C(=O)c1cc3ccccc3[nH]1)C2,-7.28%
5,c1ccc(CO[C@@H]2C[C@H]3CN(c4ncccn4)CCN3C2)cc1,5.2%
6,Cn1ncc2c(N[C@H]3CCCC[C@@H]3O)nc(C(C)(C)C)nc21,-2.77%
7,CC1CN(C)CCN1C(=O)c1ccn(-c2ccccc2Cl)n1 (stereo not drawn),16.7%
8,CN(C)CCC1CCN(Cc2ccn(C)c(=O)c2)CC1,-4.16%
9,CCc1ccsc1C(=O)N1CCCC(c2noc(C)n2)C1 (stereo not drawn),-2.57%
10,CCN(Cc1ccccc1)c1ncnc2c(C)nn(CC)c12,-4.47%
11,COc1ccccc1OCc1nc2cc3c(cc2c(=O)o1)OCCCO3,31.8%
12,CN(Cc1nnc2ccccn12)C(=O)CCC1CCCC1,-8.63%
13,Cc1ccccc1C1CCN(CCn2cc(-c3cccc(O)c3)nn2)C1 (stereo not drawn),29.4%
14,O=C(NC1CC1)C1=CC2(CCN(CCO)CC2)c2ccccc21,-11%
15,Cc1cc(C)n(CC2CN(c3cnc4ccccc4n3)CCO2)n1 (stereo not drawn),-8.47%
16,CC(C)CNC(=O)c1cccc(Oc2ccc3nncn3n2)c1,-9.71%
17,CN(C)C(=O)c1nnn(-c2ccc(Br)cc2)n1,28.4%
18,Cc1n[nH]c(C)c1CN1CC[C@@H]2[C@@H](CCC(=O)N2CCc2c[nH]cn2)C1,1.53%
19,O=C(C1CCN(c2cccnn2)C1)N1CCOCC1 (stereo not drawn),1.06%
20,CN1C[C@@H](C(=O)N2CCCOCC2)[C@@]2(CCc3ccccc3C(=O)N2)C1,-1.32%
21,CCCS(=O)(=O)N1Cc2nccn2CC(CN2CCCC2)C1 (stereo not drawn),-4.76%

row,Structure (SMILES),cytotoxicity at 70.5 h
1,Cc1cccc(C(=O)N2CCCn3c(CN4CCCCC4)nnc3C2)c1,-11.1%
2,COC(CNC(=O)c1cc(C)on1)c1ccccc1C (stereo not drawn),-2.28%
3,CCCc1nc(N2CCCC3(CCNC3)C2)c2cnn(C)c2n1 (stereo not drawn),-7.26%
4,CC(C#N)CNS(=O)(=O)c1ccc(Br)c(F)c1 (stereo not drawn),-8.29%
5,NC(=O)C1CN(Cc2c(O)ccc3oc4c(c23)CCCC4)CCO1 (stereo not drawn),-5.87%
6,CC(C)c1nnsc1CNC(=O)C1CCN(C(=O)C2CCCC2)CC1,12%
7,O=c1[nH]c2cc3c(cc2cc1CN1CCCC1c1ccccn1)CCC3 (stereo not drawn),9.53%
8,CCOc1ccccc1CN(CC)Cc1ccc(S(=O)(=O)NC)cc1,-5.11%
9,CC(C)NC(=O)c1nc2c(s1)CCCN2c1ccccc1,5.99%
10,N#CCCCOc1cccnc1NC(=O)CCC1CCCC1,-0.625%
11,CCn1cc(S(=O)(=O)NCC(c2ccccc2)N2CCOCC2)c(C)n1 (stereo not drawn),18.1%
12,CCn1nccc1CNC(=O)Cn1cc2c(n1)c(C)nn2C(C)C,-9.07%
13,CC(C)Nc1nc(-c2ccccc2)nc2c1CCN(C(=O)C1CC1)CC2,-9.57%
14,COc1ccccc1N1CCN(C(=O)CCn2ccc(C)n2)CC1,23.2%
15,COc1ncnc2c1CCN(C(=O)NCc1cccc(F)c1)CC2,-6.04%
16,CCNC(=O)CS(=O)(=O)NC1CCC(C)CC1 (stereo not drawn),-14.8%
17,COc1ccc(-c2ccnc(N)c2)c(OC)c1,13.7%
18,Cc1noc(C)c1S(=O)(=O)NC(=O)COc1ccc2c(c1)CCC2,-13.5%
19,Cc1nc(CN2CC3(CCN(c4ncccn4)C3)CC2=O)cs1 (stereo not drawn),-23.8%
20,O=C(NCC1CC1)Nc1cnc2cc(Cl)ccc2c1O,-1.93%

# Source: ChEMBL document CHEMBL3507680, “University of Dundee, Gates Library screen for HepG2 cell viability”
